Broadly, the Ki is the dissociation constant of the complex between target and ligand, obtained from inhibition or displacement. Lower therefore signals tighter binding.

SMILES strings stand for the structures. Where a name gives a salt, the structure may show the parent alone.

Experiment [1] deals with T1, nucleoside transport protein (Homo sapiens, UniProt Q99808).
T1 construct: 100 μl of an aqueous suspension of erythrocyte membrane; from tissue; host or cells: erythrocyte membrane
T1 sequence (Q99808 1-456): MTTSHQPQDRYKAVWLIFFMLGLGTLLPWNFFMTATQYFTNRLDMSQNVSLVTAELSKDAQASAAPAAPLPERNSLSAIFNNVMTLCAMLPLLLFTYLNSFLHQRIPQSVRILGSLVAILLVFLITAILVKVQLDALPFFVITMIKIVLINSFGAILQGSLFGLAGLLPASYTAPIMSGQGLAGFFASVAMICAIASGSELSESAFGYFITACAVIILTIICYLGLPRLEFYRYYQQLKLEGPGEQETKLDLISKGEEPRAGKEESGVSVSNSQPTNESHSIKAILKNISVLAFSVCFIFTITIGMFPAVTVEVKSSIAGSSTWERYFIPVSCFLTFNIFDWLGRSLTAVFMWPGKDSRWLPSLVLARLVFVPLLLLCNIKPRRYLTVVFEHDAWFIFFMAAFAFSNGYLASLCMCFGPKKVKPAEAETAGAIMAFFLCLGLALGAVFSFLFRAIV
The experiment in a line: inhibition of the nucleoside transport protein ([3H]NBl displacement, erythrocyte membrane). The class given is binding. The following applies: 1.5 nM [3H]NBl; for % Displacement at 10 μM: 10 μM compound; for Ki: 30 minutes at 25° C. On the procedure: The following test conditions were chosen for the determination of the inhibition of the nucleoside transport protein:
100 μl of the substance solution in aqueous solution with DMSO as solution aid were incubated for 30 minutes at 25° C. with 100 μl of 1.5 nM [^3H]NBl ([…]), 100 μl of buffer (50 mM Tris.HCl, pH 7.4) and 100 μl of an aqueous suspension of erythrocyte membrane. After the incubation the test mixture was filtered off (Whatman GF/C Filter, post-washed with 50 mM Tris.HCl). The filters were transferred to test tubes, 3.5 ml of scintillation fluid were added, and after 2 hours the radioactivity was measured in a β-counter.

In experiment [2] the test system is (+)-MK801 binding site of the ionotropic NMDA receptor. The experiment in a line: (3H)-(+)-MK801 receptor binding test on rat brain membrane homogenate. The settings on record: 10 μmole/l compound, 1 nmole/l (3H)-(+)-MK801, mean values of double determinations. Here is the method: The investigations to determine the NMDA antagonistic action of the compounds according to the invention were carried out on brain membrane homogenates (rat brain homogenate minus cerebellum, pons and medulla oblongata from male Wistar strain rats (Charles River, Sulzfeld, Germany)).
For this, freshly prepared rat brains were digested, after removal of the cerebellum, pons and medulla oblongata, in 50 mmole/l Tris/HCl (pH 7.7) in a Polytron homogeniser (model PT3000, Kinematika AG, Littau, Switzerland) at 6,000 revs. per minute (rpm) for 1 minute while cooling in ice and then centrifuged for 15 minutes at 4° C. and 60,000 g. The supernatant was decanted and discarded, and the membrane pellet was taken up again in 50 mmole/l of Tris/HCl (pH 7.7) and digested in a homogeniser at 2,000 rpm for 1 minute and recentrifuged for 15 minutes at 4° C. and 60,000 g. The supernatant was discarded again and the membrane pellet was homogenised in 50 mmole/l Tris/HCl (pH 7.7) (2,000 rpm for 1 minute) and aliquot portions were frozen at −70° C.
For the receptor binding test aliquots were in each case thawed out and then centrifuged for 15 minutes at 4° C. and 60,000 g. After decanting and discarding the supernatant, the membrane pellet for the binding test was taken up in binding test buffer and homogenised (2,000 rpm for 1 minute). 5 mmole/l Tris/HCl (pH 7.7) supplemented with 30 μmole/l of glycine and 100 μmole/l of glutamic acid was used as binding test buffer.
1 nmole/l of (^3H)-(+)-MK801 ((5R, 10S)-(+)-5-methyl-10,11-dihydro-5H-dibenzo(a,d)cyclohepten-5,10-imine (NET-972, NEN, Cologne, Germany) was added as radioactively labelled ligand. The proportion of non-specific binding was determined in the presence of 10 μmole/l of non-radioactively labelled (+)-MK801 (RBI/Sigma, Deisenhofen, Germany). In further assays the respective compounds according to the invention were added in concentration series and the displacement of the radioactive ligand from its specific binding to the NMDA receptor was measured.
The batches were incubated in each case for 40 minutes at 25° C. and then harvested by filtration to determine the radioactive ligand bound to the brain membrane homogenate. The radioactivity retained by the filter was measured after adding a scintillator (“Ready Protein” scintillator, Beckmann Coulter GmbH, Krefeld, Germany) in a β-counter (Packard TR^1-CARB Liquid Scintillation Analyser 2000CA, Packard Instrument, Meriden, Conn. 06450, USA).
The resulting percentage inhibition of the specific binding of the ligand (^3H)-(+)-MK801 in the presence of in each case 10 μmole/l of the respective compound according to the invention serves as a measure of the affinity of this compound for the (+)-MK801 binding site of the ionotropic NMDA receptor. The affinities are given in Table 2 as mean values of double determinations on selected examples.

The target of experiment [3] is T2, recombinant human adenosine A3 receptor (Homo sapiens, UniProt P0DMS8).
T2 construct: expressed in transfected cells
T2 sequence (P0DMS8 1-318): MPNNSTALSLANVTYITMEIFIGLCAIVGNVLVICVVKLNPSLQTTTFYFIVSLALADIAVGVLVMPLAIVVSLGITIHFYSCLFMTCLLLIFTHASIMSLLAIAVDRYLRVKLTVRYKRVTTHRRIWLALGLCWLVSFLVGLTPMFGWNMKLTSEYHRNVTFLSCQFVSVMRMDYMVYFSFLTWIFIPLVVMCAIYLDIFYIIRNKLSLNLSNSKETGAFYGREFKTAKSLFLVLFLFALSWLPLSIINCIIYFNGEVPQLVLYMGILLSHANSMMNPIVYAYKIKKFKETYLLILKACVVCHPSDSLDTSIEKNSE
The experiment in a line: adenosine A3 receptor displacement assay with [125I]AB-MECA. The following applies: compound concentration 3 μM; ligand 0.1 nM [125I]AB-MECA. It counts as binding. Here is the method:
The dihydrochloride of Example 147 (prepared from Example 147 in a similar manner to Examples 145 and 152) was investigated as regards its affinity for the recombinant human adenosine A3 receptor in a displacement assay (C. A. Salvatore et al., Process. Natl. Acad. Sci. USA (1993), Vol. 90, 10365–10369). At a ligand concentration of 0.1 nM [^125I]AB-MECA (N^6-(4-amino-3-[^125I]iodobenzyladenosine) the displacement at a concentration of 3 μM was 93%.

In the case of `COc1ccc(C2CC(c3ccc([N+](=O)[O-])o3)Nc3c(Br)c(-c4ccccc4)nn32)cc1OC` (stereo not shown) [Example 39, 3-bromo-7-(3,4-dimethoxyphenyl)-5-(5-nitrofuran-2-yl)-2-phenyl-tetrahydropyrazolo[1,5-a]pyrimidine], the “% Displacement at 10 μM” value in experiment [1] amounted to 40%.
Compound `COc1ccc(C2CC(c3ccc([N+](=O)[O-])s3)Nc3c(N=Nc4ccccc4)c(O)nn32)cc1OC` (stereo not shown) [Example 53, 7-(3,4-dimethoxyphenyl)-5-(5-nitrothiophen-2-yl)-3-phenylazotetrahydropyrazolo[1,5-a]pyrimidin-2-ol] registered an inhibitory constant (Ki) in experiment [1] of 0.6 µM.
In turn, `COc1ccc(C2CC(c3ccc([N+](=O)[O-])s3)Nc3c(Br)c(-c4ccccc4)nn32)cc1OC` (stereo not shown) [Example 54, 3-bromo-7-(3,4-dimethoxyphenyl)-5-(5-nitrothiophen-2-yl)-2-phenyltetrahydropyrazolo[1,5-a]pyrimidine] returned a Ki in experiment [1] of 1.3 µM.
Same read-out and setting: as for `COc1ccc(C2CC(c3ccc([N+](=O)[O-])s3)Nc3c(C#N)c(SC)nn32)cc1OC` (stereo not shown) [Example 55, 7-(3,4-dimethoxyphenyl)-2-methylsulfanyl-5-(5-nitrothiophen-2-yl)-tetrahydropyrazolo[1,5-a]pyrimidine-3-carbonitrile], the figure is 0.4 µM.
With `COc1ccc(C2CC(c3ccc([N+](=O)[O-])s3)Nc3c(C#N)cnn32)cc1OC` (stereo not shown) [Example 56, 7-(3,4-dimethoxyphenyl)-5-(5-nitrothiophen-2-yl)-tetrahydropyrazolo[1,5-a]pyrimidine-3-carbonitrile], the “% Displacement at 10 μM” value in experiment [1] is given as 43%.
In turn, `COc1ccc(C2CC(C(=O)c3ccccc3)Nc3c(C#N)c(SC)nn32)cc1OC` (stereo not shown) [Example 64, 5-benzoyl-7-(3,4-dimethoxyphenyl)-2-methylsulfanyltetrahydropyrazolo[1,5-a]pyrimidine-3-carbonitrile] showed an inhibition constant (Ki) in experiment [1] of 0.6 µM.
For the compound `COc1ccc(C2CC(CCc3ccccc3)Nc3c(C#N)c(SC)nn32)cc1OC` (stereo not shown) [Example 111, 7-(3,4-dimethoxyphenyl)-2-methylsulfanyl-5-phenethyl-tetrahydropyrazolo[1,5-a]pyrimidine-3-carbonitrile], the Ki in experiment [1] was determined as 0.3 µM.
For `OC1=NN2C(=NC(c3ccccn3)CC2c2ccccc2)C1N=Nc1ccccc1` (stereo not shown) [Example 140, 7-phenyl-3-phenylazo-5-pyridin-2-yl-3,5,6,7-tetrahydropyrazolo[1,5-a]pyrimidin-2-ol], in experiment [2], the “% Inhibition of the specific binding of the ligand (3H)-(+)-MK801” value (shortened to “% Inhibition”) stood at 44%.
Same read-out and setting: as for `CCOC(=O)C1C=NN2C1=NC(c1ccccn1)CC2Sc1ccccc1` (stereo not shown) [Example 141, 7-phenylsulfanyl-5-pyridin-2-yl-3,5,6,7-tetrahydropyrazolo[1,5-a]pyrimidine-3-carboxylic acid ethyl ester], the figure is 45%.
Consider `OC1=NN2C(=NC(c3ccccn3)CC2Sc2ccccc2)C1N=Nc1ccccc1` (stereo not shown) [Example 142, 3-phenylazo-7-phenylsulfanyl-5-pyridin-2-yl-3,5,6,7-tetrahydropyrazolo[1,5-a]pyrimidin-2-ol], for which the “% Inhibition” value in experiment [2] stood at 75%.
With `BrC1C=NN2C1=NC(c1ccccn1)CC2Sc1ccccc1` (stereo not shown) [Example 143, 3-bromo-7-phenylsulfanyl-5-pyridin-2-yl-3,5,6,7-tetrahydropyrazolo[1,5-a]pyrimidine], the “% Inhibition” value in experiment [2] was 49%.
As to `N#CC1C=NN2C1=NC(c1ccccn1)CC2Sc1ccccc1` (stereo not shown) [Example 144, 7-phenylsulfanyl-5-pyridin-2-yl-3,5,6,7-tetrahydropyrazolo[1,5-a]pyrimidine-3-carbonitrile], the “% Inhibition” value in experiment [2] is reported as 45%.
`COc1ccc(C2CC(c3ccccn3)Nc3c(Br)c(-c4ccccc4)nn32)cc1OC` (stereo not shown) [Example 145, 3-bromo-7-(3,4-dimethoxyphenyl)-2-phenyl-5-pyridin-2-yl-4,5,6,7-tetrahydropyrazolo[1,5-a]pyrimidine dihydrochloride] gave a Ki in experiment [1] of 0.4 µM.
For `COc1ccc(C2CC(c3ccc([N+](=O)[O-])o3)Nc3c(C#N)c(SC)nn32)cc1OC` (stereo not shown) [Example 153, 7-(3,4-dimethoxyphenyl)-2-methylsulfanyl-5-(5-nitrofuran-2-yl) tetrahydropyrazolo[1,5-a]pyrimidine-3-carbonitrile], the “% Displacement at 10 μM” value in experiment [1] was 50%.
In the case of `CCOC(=O)c1cnn2c1NC(c1ccccn1)CC2c1ccc(OC)c(OC)c1` (stereo not shown) [Example 154, 7-(3,4-dimethoxyphenyl)-5-pyridin-2-yl-4,5,6,7-tetrahydropyrazolo[1,5-a]pyrimidine-3-carboxylic acid ethyl ester], the “% Displacement at 10 μM” value in experiment [1] stood at 41%.
Consider `COc1ccc(C2CC(c3ccccn3)Nc3c(Br)c(-c4ccccc4)nn32)cc1OC` (stereo not shown) [dihydrochloride of Example 147, 3-bromo-7-(3,4-dimethoxyphenyl)-2-phenyl-5-pyridin-2-yl-tetrahydropyrazolo[1,5-a]pyrimidine], for which the displacement in experiment [3] amounted to 93%.

The values above are taken from US7135568B2, “Substituted pyrazolopyrimidines and thiazolopyrimidines” (Gruenenthal GmbH, priority 2001, dated 2006).
